In assay [1] the test system is eosinophilia in the lavage. Briefly: Late phase eosinophilia model in sensitised guinea pigs (bronchoalveolar lavage). The assay is classed as in vivo, guinea pigs (Pirbright White). As for the experimental part: The in vitro investigations with D-22557 and D-22558 were continued in vivo (late phase eosinophilia model) in sensitised guinea pigs
Male guinea pigs (Pirbright White, 200-250 g. Charles River Wiga, Sulfeld) were actively sensitised using a s.c. injection cf ovalbumin (10μg+100 mg aluminium hydroxide) and boosted 2 weeks later. One week after the booster injection the animals were exposed for 30 seconds to an aerosol made from 0.5% ovalbumin solution. 24 hours later brochoalveolar lavage (BAL) was carried out with 2×5 ml physiol. salt solution in animals sacrificed using an overdose of pentobarbital sodium and desanguinated. The lavage fluid was pooled, centrifuged for 10 minutes at 400×g and the cell pellet resuspended in 1 ml physiological salt solution. The eosinophiles were counted in a Neubauer chamber after staining by using a Becton Dickinson eosinophile test kit. Percentage Inhibition of the eosinophilia in the lavage was calculated in percent by comparing the eosinophile count of the groups treated with substance with the eosinolphile count of normal (unchallenged) and challenged control groups not treated with the substance. Each group numbered 10 animals. Test substances were either given prophylactically 2 hours before allergen challenge (-2 h) or therapeutically 4 hours after challenge (+4 h). When the therapeutic application was investigated, the animals (all groups) received azelastin (10 μg/kg po) 2 hours before allergen challenge to avoid deaths arising due to the onset of early phase bronchoconstriction.

Assay [2] relates to allergically-induced histamine release from mast cells of the peritoneal and pleura cavities. Briefly: Inhibition of allergically-induced histamine release in-vitro (CHIR). The settings on record: for IC50: allergically-induced histamine release, rat mast cells, in vitro; for CHIR % inhibition: with 10 [μmol/l] (footnote: concentration unit 10,000 nmol/l). The class given is cell-based, Sprague-Dawley rats. As for the experimental part: Inhibition of allergically-induced histamine release in-vitro (CHIR)
Meth. […] Sprague-Dawley rats were sensitised against egg albumin (EA) by subcutaneous injection of 30 mg EA with killed Bordetella pertussis bacteria as adjuvant. Four weeks later, the mast cells of the peritoneal and pleura cavities were isolated from these animals. The cells were washed, resuspended in tris gel CM (the composition of tris gel CM buffer is as follows:
the rest is water, the pH value of the solution is 7.6) buffer and pre-incubated with the test substances for 15 minutes at 37° C. The cells were then stimulated at 37° C. by adding the antigen EA to release histamine.

For assay [3], the system named is IL-4 release from murine T-helper cells (D10.G4). The assay can be described thus: Inhibition of anti-CD3-induced release of interleucin (IL)-4 in vitro (CIL4TC). The class given is cell-based. As to conditions: anti-CD3-induced IL-4 release; for IC50: 16 hours; for CIL4TC % inhibition: with 10 000 nmol/l. As for the experimental part: (§1) Inhibition of anti-CD3-induced release of interleucin (IL)-4 (CIL4TC) and IL-5-release (CIL5TC) in vitro
(§2) Murine T-helper cells (D10.G4) were used as IL-4/IL-5-producing cells. These cells were pre-incubated with the test substances for 30 minutes at 37° C. The cells were then stimulated at 37° C. to produce interleucins by adding a monoclonal antibody against the T-cell receptor domain CD3 (anti-CD3). After 16 hours, the cells were centrifuged off and the released interleucins were quantified in the cell supernatant with ELISAs for murine IL-4 and IL-5.

Assay [4] deals with IL-5 release from murine T-helper cells (D10.G4). The assay can be described thus: Inhibition of anti-CD3-induced IL-5-release in vitro (CIL5TC). The class given is cell-based. As to conditions: 16 hours. How it is done: as §1, §2
Where [5] appears, read: 5 mg/kg ip, -2 h (before allergen challenge).

SMILES strings stand for the structures. Structures can show the parent of a compound that is named as a salt.

For `Fc1ccc(Cn2cc(CCNc3cccnc3)c3ccccc32)cc1.O=C(O)/C=C\C(=O)O` [D-22557, N-(pyridine-3-yl)-2-[1-(4-fluorobenzyl)indole-3-yl]ethylamine maleate], the “% Inhibition of the eosinophilia in the lavage” value in assay [1] (0.5 mg/kg ip, -2 h (before allergen challenge)) is 59%; in assay [1] (1 mg/kg ip, -2 h (before allergen challenge)), 42%; in assay [1] (setting [5]) it was 50%.
A word on the IC50: it is the concentration needed to halve the response being measured. Low readings indicate greater potency in that assay, high ones weaker potency in that assay. As for `O=C(Cc1cn(Cc2ccc(F)cc2)c2ccccc12)Nc1ccncc1` [D-22558, N-(4-pyridyl)-[1-(4-fluorobenzyl)indole-3-yl]acetamide], the IC50 in assay [2] (Mast cell) stood at 0.016 µM; in assay [3] (Mus musculus) it was 7.97 µM; in assay [4] (Mus musculus) it was 1.52 µM. The “% Inhibition of the eosinophilia in the lavage” value was found to be 41% in assay [1] (setting [5]); 59% in assay [1] (10 mg/kg ip, +4 h (after challenge), animals received azelastin 10 μg/kg po 2 hours before challenge); 23% in assay [1] (10 mg/kg po, -2 h (before allergen challenge)); 35% in assay [1] (30 mg/kg po, -2 h (before allergen challenge)).
`CCOC(=O)Nc1ccc(N2CCc3c([nH]c4ccccc34)C2)nc1N` [D-22559, N-(6-amino-5-ethoxycarbonylamino-(-2-pyridyl))-1,2,3,4-tetrahydro-β-carboline]: the 50% inhibitory concentration (IC50) in assay [2] (Mast cell) was determined as 3.4 µM; in assay [4] (Mus musculus), 6.6 µM. In assay [3], this molecule gave a CIL4TC % inhibition of 51%.
`Fc1ccc(Cn2cc(CCNc3ccncc3)c3ccccc32)cc1` [D-22561, N-(4-pyridyl-yl)-2-[1-(4-fluorobenzyl)indole-3-yl]ethylamine maleate] showed a CHIR % inhibition in assay [2] of 15%. Moreover, the IC50 in assay [3] (Mus musculus) is 5.68 µM; in assay [4] (Mus musculus), 3.21 µM.
The like results for `c1ccc(Cn2cc(CCNc3ccncc3)c3ccccc32)cc1` [D-22685, N-(4-pyridyl-yl)-2-(1-benzylindole-3-yl)ethylamine maleate] were, in that order, 33%, 8.58 µM and 6.89 µM.
Consider `Fc1ccc(Cn2cc(CCCNc3cccnc3)c3ccccc32)cc1` [D-22686, N-(3-pyridyl-yl)-3-3[1-(4-fluorobenzyl)indole-3-yl]propylamine], for which the half-inhibitory concentration (IC50) was 0.2 µM in assay [2] (Mast cell) and 7.31 µM in assay [4] (Mus musculus). Further, the CIL4TC % inhibition in assay [3] is on record as 41%.
As for `CCn1cc(CC(=O)Nc2ccncc2)c2ccccc21` [D-22693, N-(4-pyridyl-yl)-2-(1-ethylindole-3-yl)acetamide], the 50% inhibitory concentration (IC50) in assay [2] (Mast cell) is 0.4 µM; in assay [4] (Mus musculus), 2.7 µM. The CIL4TC % inhibition in assay [3] is reported as 48%.
On to `Cn1cc(CCCNc2ccncc2)c2ccccc21` [D-22697, N-(4-pyridyl-yl)-3-(1-methylindole-3-yl)propylamine], for which the IC50 in assay [3] (Mus musculus) came to 7.29 µM; in assay [4] (Mus musculus), 2.88 µM.
The molecule `Fc1ccc(Cn2cc(CCCNc3ccncc3)c3ccccc32)cc1` [D-22698, N-(4-pyridyl-yl)-3-[1-(4-fluorobenzyl)indole-3-yl]propylamine] registered a CIL4TC % inhibition in assay [3] of 38%. This molecule came in with a half-maximal inhibitory concentration (IC50) in assay [4] (Mus musculus) of 7.77 µM.
Take `CCOC(=O)Nc1ccc(OC)nc1NCCc1cn(Cc2ccccc2)c2ccccc12` [D-22992, N-(3-ethoxycarbonylamino-6-methoxy-(2-pyridyl))-2-(1-benzylindole-3-yl)ethylamine]: the half-inhibitory concentration (IC50) was determined as 0.68 µM in assay [2] (Mast cell), 9.73 µM in assay [3] (Mus musculus) and 6.24 µM in assay [4] (Mus musculus).
With `CCOC(=O)Nc1ccc(OC)nc1NCCCc1cn(Cc2ccc(F)cc2)c2ccccc12` [D-22993], the IC50 in assay [2] stood at 0.54 µM; in assay [3], 8.97 µM; in assay [4] it was 6.94 µM.

For the origin of these results see patent US5965582A, “N-benzylindole and benzopyrazole derivatives with anti-asthmatic, anti-allergic, anti-inflammatory and immunemodulating effect” (ASTA Medica Aktiengesellschaft, priority 1994, dated 1999).
